Here are results for three compounds from US11571467B2, “Dodecafluoropentane emulsion as a stroke and ischemia therapy” (The Board of Trustees of the University of Arkansas, priority 2011, dated 2023).

Where two headings read alike, the source gives them in different places.

For data set [1] the following is noted: in the liquid PFC; cited from earlier work.
The conditions of data set [2]: cited from earlier work.
Data set [3] can be described thus: Pharmacokinetic study, DDFP blood levels by headspace GC-MS. It is filed as in vivo, New Zealand White rabbits. How it is done: Pharmacokinetic study. In alert New Zealand White rabbits (5.1±0.5 kg; N=8), cannulae were placed in a vein of one ear and in an artery of the other ear. After intravenous injection of DDFPe (0.6 ml/kg in a 2% w/v emulsion) arterial blood samples were taken over a period of 4 to 7 h. The dose of DDFPe was repeated every 90 min in four animals. Samples were stored at −20° C. until they were analyzed for DDFP content by a headspace gas chromatograph-mass spectrometer (Varian TSQ).
Because infarct volumes were not normally distributed, ranks of infarct volume were analyzed with PROC GLM of SAS software (Kruskal-Wallis equivalent). Blood levels of DDFP were analyzed for exponential curve fit and exponential decay time constant using KaleidaGraph software v4.01 (2005). Values are given as mean±standard error.

Broadly, the half-life is how long it takes for the measured level to halve. What is called clearance is the volume of plasma or blood freed of the substance per unit of time. The low end stands for inefficient removal, the high end for efficient removal. In the case of `FC(F)(F)C(F)(F)C(F)(F)C(F)(F)C(F)(F)F` [DDFP, dodecafluoropentane], in data set [1], the solubility of oxygen is on record as 80 % v/v. Further, the half-life in blood in data set [2] (humans, previous study) is 2.2 ± 1.2 min. Further, the “half-life in the blood” value in data set [2] (intravenous administration) was 2 min. Moreover, in data set [2] (within 2 hours after single intravenous dose), the “DDFP cleared through the lungs / recovered from expired air” value was 99%. Also, the half-life in data set [3] (New Zealand White, rabbit, arterial whole blood, intravenous, FIG. 15, 0.6 ml/kg of 2% w/v emulsion, read-out: half-life in blood, representative rabbit) came to 1.68 min; in data set [3] (New Zealand White, rabbit, arterial whole blood, single DDFPe dose of 0.6 ml/kg IV, N=4, read-out: mean half-life in blood), 1.45 ± 0.17 min. The compound further showed a clearance in data set [3] (New Zealand White, rabbit, arterial whole blood, single DDFPe dose of 0.6 ml/kg IV) of 78.5 ± 24.9 mL/min/kg. Further, the “time for blood level to return to the baseline level after each dose” value in data set [3] (multiple doses at 90 min intervals) is recorded as “less than 30 min”. Besides, the “time for blood levels to reach non-detectable levels” value in data set [3] (single DDFPe dose of 0.6 ml/kg IV) is recorded as at most 30 min. Also, in data set [3] (up to five doses of 0.6 ml/kg at 90 min intervals), the accumulation in blood entry is reported as “no sign of accumulation”.

Take `FC1(F)C(F)(F)C(F)(F)C2(F)C(F)(F)C(F)(F)C(F)(F)C(F)(F)C2(F)C1(F)F` (stereo not drawn) [PFD, perfluorodecalin]: in data set [1], the solubility of oxygen is recorded as 42 % v/v.

`FC(F)(F)C(F)(F)C(F)(F)C(F)(F)C(F)(F)C(F)(F)C(F)(F)C(F)(F)Br` [PFOB, perfluorooctylbromide]: in data set [1], the solubility of oxygen was 50 % v/v.
